EP0204215B1, “2-[(1H-benzimidazol-2-ylsulfinyl)methyl]-benzenamines” (G.D. Searle & Co., priority 1985, dated 1986)

Experiments:
Gastric Acid Secretion [1] = experiment: Inhibition of gastric acid secretion in gastric fistula beagle dogs (histamine-stimulated); assay type: in vivo; details: four-hour histamine stimulation; for Gastric-Fistula Beagle % Inhibition: 3 mg/kg dose; for inhibition in vivo at 3 mg/kg: Canis lupus familiaris, 4 h
Source text: Adult female beagle dogs weighing 6 to 11 kilograms obtained from Laboratory Research Enterprises (Kalamazoo, Mich.) or from Hazelton Research Animals (Cumberland, Va.) were surgically implanted with a simple Thomas-type gastric cannula. After recovery from surgery, the dogs were trained to stand quietly, fully conscious, in Pavlov-type dog restraining slings and were acclimated to intravenous infusion of histamine dihydrochloride. During the course of these studies, no dog was used more than once a week. All dogs were deprived of food, but not water, for 18 hours prior to each assay. Each dog was initially infused with 0.15 M sodium chloride solution at a constant rate of […]. The volume of gastric secretions, collected in plastic bottles affixed to the cannula, were measured to the nearest 0.1 ml at 30 minute intervals. One of the following protocols was followed, depending on the route chosen for administration of test compound.
Intravenous dosing: Following a 30-minute basal secretion period, test compounds were administered intravenously (i.v.). At the end of an additional 30 minute period, the saline infusion was replaced with histamine dihydrochloride in saline administered at a rate 15 mcg per kilogram of body weight per hour. Histamine stimulation was maintained for a maximum of four hours during which time gastric secretions were collected every 30 minutes. The pH and titratable acidity were determined for samples from each collection period.
Intragastric dosing: Following a 30-minute basal secretion period, the collection bottles were removed, dosing plugs were inserted, and test compounds were administered intragastrically (i.g.). At the end of a 30-minute drug absorption period, the stomachs were emptied, the collection bottles were reattached, and collections were resumed at 30-minute intervals. Simultaneously, the saline infusion was replaced with a continuous intravenous infusion of histamine dihydrochloride in saline administered for four hours at a rate 15 mcg per kilogram of body weight per hour.
Intraduodenal dosing: Dogs were also equipped with duodenal cannulas for intraduodenal (i.d.) administration of test compounds. Dosing was otherwise performed as described for intragastric dosing.
Data from each protocol were analyzed for three gastric sample variables: volume of gastric juice, acid concentration, and total acid output. Percent inhibition for each four-hour experimental period was determined for each parameter by comparison with 3 to 4 controls in which only food was given. Estimates of ED₅₀'s were determined from dose response curves.

(H⁺+K⁺)-ATPase = target: T1, (H⁺+K⁺)-ATPase (Canis lupus familiaris, UniProt P50996); experiment: Inhibition of (H⁺+K⁺)-ATPase from canine gastric mucosa (release of inorganic phosphate); assay type: biochemical; details: microsomes from canine gastric mucosa, pH 6.0, preincubated 30 min at 37°; read-out: (H⁺+K⁺)-ATPase IC₅₀
T1 construct: The microsomes retained at the 15%-30% sucrose interface, after centrifugation at 250,000xg for sixty minutes, were used as the source of (H⁺+K⁺)-ATPase; from tissue; host or cells: gastric glandular mucosa of mongrel dogs (microsomal fraction, sucrose step gradient, lyophilized)
T1 sequence (P50996 whole entry): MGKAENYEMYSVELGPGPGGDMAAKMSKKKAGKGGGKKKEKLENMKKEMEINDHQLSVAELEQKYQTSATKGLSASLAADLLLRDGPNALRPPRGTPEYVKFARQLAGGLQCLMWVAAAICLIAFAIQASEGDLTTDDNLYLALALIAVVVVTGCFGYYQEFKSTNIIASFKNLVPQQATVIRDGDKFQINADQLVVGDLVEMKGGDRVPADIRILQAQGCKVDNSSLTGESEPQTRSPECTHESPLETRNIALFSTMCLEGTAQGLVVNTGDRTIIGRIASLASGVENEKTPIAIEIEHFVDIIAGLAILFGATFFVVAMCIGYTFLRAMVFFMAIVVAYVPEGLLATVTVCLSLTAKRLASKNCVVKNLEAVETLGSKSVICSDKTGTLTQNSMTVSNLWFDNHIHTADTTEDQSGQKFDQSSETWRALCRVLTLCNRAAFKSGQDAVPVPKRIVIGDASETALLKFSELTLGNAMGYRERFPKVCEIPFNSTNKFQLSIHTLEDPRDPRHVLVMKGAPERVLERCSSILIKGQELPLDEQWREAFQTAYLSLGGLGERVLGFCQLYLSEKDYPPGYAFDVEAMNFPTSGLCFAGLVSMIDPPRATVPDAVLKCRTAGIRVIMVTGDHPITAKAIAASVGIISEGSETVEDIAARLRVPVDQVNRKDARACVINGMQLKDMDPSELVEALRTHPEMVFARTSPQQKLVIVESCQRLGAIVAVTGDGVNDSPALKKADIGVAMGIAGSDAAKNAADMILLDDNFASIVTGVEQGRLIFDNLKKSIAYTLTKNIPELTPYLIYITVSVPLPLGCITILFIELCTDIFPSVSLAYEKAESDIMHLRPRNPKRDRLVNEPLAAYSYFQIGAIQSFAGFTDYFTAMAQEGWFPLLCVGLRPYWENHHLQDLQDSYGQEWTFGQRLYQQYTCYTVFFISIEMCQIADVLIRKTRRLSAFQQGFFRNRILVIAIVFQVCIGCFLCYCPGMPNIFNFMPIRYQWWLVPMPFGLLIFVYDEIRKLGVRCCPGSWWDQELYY
T1 sequence (P33704 whole entry partner): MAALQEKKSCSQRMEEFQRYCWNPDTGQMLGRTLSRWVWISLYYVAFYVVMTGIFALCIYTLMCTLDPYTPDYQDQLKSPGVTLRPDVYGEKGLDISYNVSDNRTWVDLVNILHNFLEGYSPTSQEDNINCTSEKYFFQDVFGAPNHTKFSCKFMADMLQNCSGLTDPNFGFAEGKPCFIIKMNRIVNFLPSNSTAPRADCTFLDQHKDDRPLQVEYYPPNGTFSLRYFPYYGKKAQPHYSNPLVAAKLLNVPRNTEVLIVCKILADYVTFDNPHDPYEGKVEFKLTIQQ
Procedure: Mongrel dogs weighing 15 to 25 kilograms were fasted for twenty-four hours, with water provided ad libitum. The animals were anesthetized with pentobarbital and the stomachs were removed. Subsequent tissue manipulations and subcellular fractionations were performed at 0 to 4°C. After the stomachs were cut open and rinsed with tap water, the antral and cardiac regions were removed and the remaining tissue was rinsed three times in saline. The glandular mucosa was removed mechanically, chopped finely in a medium containing 10 mM Tris hydrochloride (pH 7.4) and 250 mM sucrose, and homogenized. The homogenate was centrifuged at 20,000xg for twenty minutes and the pellet discarded. The supernatant was then centrifuged at 150,000xg for ninety minutes and the supernatant discarded. The pellet was resuspended in the Tris-HCl/sucrose medium by homogenization. Part (2 ml) of the resultant microsomal suspension was layered onto a step gradient consisting of 9 ml of 15% sucrose above 12 ml of 30% sucrose, each sucrose solution being buffered with 10 mM Tris hydrochloride (pH 7.4) containing 0.01% sodium aside. The microsomes retained at the 15%-30% sucrose interface, after centrifugation at 250,000xg for sixty minutes, were used as the source of (H⁺+K⁺)-ATPase. Microsomal preparations were lyophilized, a process that assured potassium ion permiability, and stored at -10° until used.
(H⁺+K⁺)-ATPase activity for each test compound was determined, in duplicate, by measuring the release of inorganic phosphate, which was assayed according to the method of J. ChandraRajan and L. Klein. Anal. Biochem., 72, 407-412 (1976). The (H⁺+K⁺)-ATPase assay medium consisted of 20 mM Mes-Tris (pH 6.0), 5 mM magnesium chloride, 25 mM sucrose, and 4mM Tris-ATP with or without 20 mM potassium chloride in a total volume of 2 ml. Microsomal suspensions (20 to 60 mcl, containing about 25 mcg protein) were added to the assay medium, without Tris-ATP, and then preincubated with a test compound for thirty minutes at 37°. The assay was initiated by adding Tris-ATP and the mixture was incubated another thirty minutes at 37°. A 200-mcl aliquot of the assay mixture was then added to 1.4 ml of a solution consisting of 0.1 M sodium acetate (pH 4.0) and 10% sodium dodecylsulfate, followed by the addition of 200 mcl each of 1% ammonium molybdate and 1% ascorbic acid. At least fifteen minutes later, the optical absorbance at 870 nm (which was proportional to inorganic phosphate concentration up to 100 nmoles per tube, as determined by a standard curve) was obtained. Enzyme activity was linear with incubation time.
(H⁺+K⁺)-ATPase activity is represented by the difference between the measured activities in the presence of potassium ion (K⁺-stimulated) and in the absence of potassium ion (basal). The concentration of a test compound required to inhibit 50% of the (H⁺+K⁺)-ATPase activity (i.e., the IC₅₀) was determined at least in duplicate using linear regression analysis of results obtained for three different compound concentrations ranging from 0.1 mcM to 0.2 mM.

Gastric Acid Secretion [2] = experiment: Inhibition of gastric acid secretion in meal-stimulated Pavlov pouch dog; assay type: in vivo, beagle dogs; details: four-hour period
Procedure: Adult female beagle dogs weighing 6 to 10 kilograms were obtained from Laboratory Research Enterprises (Kalamazoo, Mich.) or from Hazelton Research Animals (Cumberland, Va.). Surgical implantation of a Thomas-type gastric cannula into an innervated Pavlov pouch of each dog was performed by the method reported by L. Burrows et al., J. Surgical Res., 4, 147-150 (1964). After recovery from surgery, the dogs were trained to stand quietly, fully conscious, in Pavlov-type dog restraining slings. All dogs were deprived of food, but not water, for 24 hours prior to each assay. Basal acid secretion was measured by collecting from the cannulas for 30 minutes before dosing with a test compound. Solutions of the test compounds in iso-osmotic phosphate buffer (pH 7.4) were given either intravenously or directly into the Pavlov pouch. After 30 minutes the pouch was drained. The dogs were then fed 320 grams of dog food and gastric acid secretions were collected each half hour for four hours. Controls were determined in the same way except that only food (i.e., no test compound) was administered.
Data were analyzed for three different variables: volume of gastric juice, acid concentration, and total acid output. Percent inhibition for the four-hour experimental period was determined for each parameter by comparison with 3 to 4 controls. Estimates of ED₅₀ were determined from dose response curves.

Row | Compound | IC50 ((H⁺+K⁺)-ATPase) | Gastric-Fistula Beagle % Inhibition (Gastric Acid Secretion [1]; i.d.) | further results
1 | Cc1ccc(N)c(C[S+]([O-])c2nc3ccccc3[nH]2)c1 (stereo not drawn) [Example 11, 2-[(1H-benzimidazol-2-ylsulfinyl)methyl]-4-methylbenzenamine] |  |  | Gastric-Fistula Beagle % Inhibition (Gastric Acid Secretion [1]; i.v.): 67 i.v. %
2 | COc1ccc2[nH]c(SCc3cc(C)ccc3N)nc2c1 [Example 16, 2-[[(5-methoxy-1H-benzimidazol-2-yl)thio]methyl]-4-methylbenzenamine] | 0.85 µM |  | 
3 | Cc1cc(N)c(C[S+]([O-])c2nc3ccccc3[nH]2)c(C)c1C (stereo not drawn) [Example 30, 2-[(1H-benzimidazol-2-ylsulfinyl)methyl]-3,4,5-trimethylbenzenamine hemihydrate] | 1.5 µM |  | 
4 | 2-[[[(5-(trifluoromethy)1-1H-benzimidazol-2-yl]thio]methyl]-3,6-dimethylbenzenamine [Example 28] | 5.3 µM |  | 
5 | CCOc1ccc2[nH]c(SCc3cc(C)ccc3N)nc2c1 [Example 26, 2-[[(5-ethoxy-1H-benzimidazol-2-yl)thio]-methyl]-4-methylbenzenamine] | 0.82 µM |  | 
6 | 2-[[[(5-(trifluoromethyl)-1H-benzimidazol-2-yl]thio]methyl]benzenamine [Example 20] | 5.4 µM | 72 i.d. % | Gastric-Fistula Beagle % Inhibition (Gastric Acid Secretion [1]; i.v.): 96 i.v. %
7 | Cc1ccc(CSc2nc3ccccc3[nH]2)c(N)c1C [Example 22, 2-[(1H-benzimidazol-2-ylthio)methyl]-5,6-dimethylbenzenamine] | 4.4 µM |  | inhibition in vivo at 3 mg/kg (Gastric Acid Secretion [1]; intraduodenal, i.d.): 37%
8 | Cc1cccc(C[S+]([O-])c2nc3ccccc3[nH]2)c1N (stereo not drawn) [Example 13, 2-[(1H-benzimidazol-2-ylsulfinyl)methyl]-6-methylbenzenamine] |  | 44 i.d. % | Pavlov-Pouch Dog % Inhibition (Gastric Acid Secretion [2]; 3 mg/kg): 43 (3 mg/kg) %
9 | COc1ccc2[nH]c([S+]([O-])Cc3c(N)cc(C)c(OC)c3C)nc2c1 (stereo not drawn) [Example 31, 2-[[(5-methoxy-1H-benzimidazol-2-yl)sulfinyl]methyl]-4-methoxy-3,5-dimethylbenzenamine] | 16 µM | 31 i.d. % | 
10 | COc1ccc2[nH]c([S+]([O-])Cc3ccccc3N)nc2c1 (stereo not drawn) [Example 5, 2-[[(5-methoxy-1H-benzimidazol-2-yl)sulfinyl]methyl]benzenamine] |  |  | Pavlov-Pouch Dog % Inhibition (Gastric Acid Secretion [2]; 3 mg/kg): 19 (3 mg/kg) %; Pavlov-Pouch Dog % Inhibition (Gastric Acid Secretion [2]; 10 mg/kg): 54 (10 mg/kg) %
11 | Nc1ccccc1C[S+]([O-])c1nc2ccccc2[nH]1 (stereo not drawn) [Example 3, 2-[(1H-benzimidazol-2-ylsulfinyl)methyl] benzenamine hemihydrate] |  | 53 i.d. % | Pavlov-Pouch Dog % Inhibition (Gastric Acid Secretion [2]; 1 mg/kg): 20 (1 mg/kg) %; Pavlov-Pouch Dog % Inhibition (Gastric Acid Secretion [2]; 10 mg/kg): 87 (10 mg/kg) %
12 | COc1ccc2[nH]c(SCc3cccc(C)c3N)nc2c1 [Example 18, 2-[[(5-methoxy-1H-benzimidazol-2-yl)thio]methyl]-6-methylbenzenamine] | 4.2 µM |  | Pavlov-Pouch Dog % Inhibition (Gastric Acid Secretion [2]; 3 mg/kg): 79 (3mg/kg) %; inhibition in vivo at 3 mg/kg (Gastric Acid Secretion [1]; intraduodenal, i.d.): 66%; inhibition in vivo at 3 mg/kg (Gastric Acid Secretion [1]; iv): 91%; inhibition in vivo at 3 mg/kg (Gastric Acid Secretion [1]; po, i.g.): 43%
